Reference: patent US4450269A, “Mono-5-substituted-3-chloro-4H-1,2,6-thiadiazin-4-one antifungal agents” (FMC Corporation, priority 1980, dated 1984)
Read-outs that look alike come from different tables or passages of the source.

Tests used:
Cladosporium cucumerinum [1] = experiment: Mycelial growth test; type: cell-based; details: Cladosporium cucumerinum, CC, read-out: Percent Fungus Growth Inhibition; for inhibition at 5 ppm / inhibition at 10 ppm / inhibition at 40 ppm: 72 h; for inhibition at 20 ppm: CC20, 72 h
Text: |CC = Cladosporium cucumerinum

Pythium ultimum = experiment: Mycelial growth test; type: cell-based; details: Globisporangium ultimum, 72 h, PU, read-out: Percent Fungus Growth Inhibition
Rhizoctonia solani = experiment: Mycelial growth test; type: cell-based; details: Rhizoctonia solani, 72 h, RS, read-out: Percent Fungus Growth Inhibition
Text: | RS = Rhizoctonia solani

Uromyces phaseoli [2] = experiment: whole plant or invertebrate; details: foliar, 24 h, read-out: Percent Disease Control, curative, bean rust
Helminthosporium oryzae = experiment: Mycelial growth test; details: Bipolaris oryzae, 72 h; for inhibition at 5 ppm: read-out: Percent Fungus Growth Inhibition, HO, 5 ppm, 72 hours; for inhibition at 10 ppm: read-out: Percent Fungus Growth Inhibition, HO, 10 ppm, 72 hours; for inhibition at 20 ppm: read-out: Percent Fungus Growth Inhibition, HO, 20 ppm, 72 hours; for inhibition at 40 ppm: read-out: Percent Fungus Growth Inhibition, HO, 40 ppm, 72 hours
Cladosporium cucumerinum [3] = experiment: Spore germination test; type: cell-based; details: CC, 48 hours
Method: CC = Cladosporium cucumerinum
(§1) The test chemical was dissolved or suspended in acetone in an amount such that 0.8 ml of the resulting suspension or solution, mixed with 40 ml water agar produced a water agar solution containing 40, 10, 2.5 and 1 ppm of test chemical. The resulting agar solution, at 50° C., was then divided equally between two sterile petri dishes, each having four separated quadrants, and allowed to solidify. […] quadrants of each dish were flooded with 0.1 ml of a spore suspension in sterile water. Spores of two pathogens, Erysiphe polygoni and Uromyes phaseoli, from infected plant leaves, were brushed on the remaining two quadrants. The tests were then incubated 48 hours, at 24° C.
(§2) Readings were then taken and the percentage of germinated spores calculated. From this percentage, a spore germination rating was assigned as follows: […]

Pyricularia oryzae [4] = experiment: microbe, parasite or virus in culture; type: cell-based; details: Pyricularia oryzae, 72 h; for inhibition at 5 ppm: read-out: Percent Fungus Growth Inhibition, PO, 5 ppm, 72 hours; for inhibition at 10 ppm: read-out: Percent Fungus Growth Inhibition, PO, 10 ppm, 72 hours; for inhibition at 20 ppm: read-out: Percent Fungus Growth Inhibition, PO, 20 ppm, 72 hours; for inhibition at 40 ppm: read-out: Percent Fungus Growth Inhibition, PO, 40 ppm, 72 hours
Erysiphe polygoni [5] = experiment: whole plant or invertebrate; details: foliar, 24 h, read-out: Percent Disease Control, curative, bean powdery mildew
Sclerotinia fructicola = experiment: Mycelial growth test; type: cell-based; details: Sclerotinia, 72 h, SF, read-out: Percent Fungus Growth Inhibition
Text: | SF = Sclerotinia fructicola

Phytophthora infestans [6] = type: cell-based; details: PI, 48 hours
Pyricularia oryzae [7] = experiment: whole plant or invertebrate; type: in vivo; details: Pyricularia oryzae, foliar, 24 h, read-out: Percent Disease Control, curative, rice blast, 150 ppm, 24 hours after inoculation
Uromyces phaseoli [8] = experiment: Spore germination test; type: cell-based; details: UP, 48 hours
Method: as §1, §2

Erysiphe polygoni [9] = experiment: Spore germination test; type: cell-based; details: EP, 48 hours
Method: as §1, §2

Botrytis cinerea = experiment: Spore germination test; type: cell-based; details: BC, 48 hours
Method: as §1, §2

Alternaria solani [10] = experiment: Spore germination test; type: cell-based; details: AS, 48 hours
Method: as §1, §2

Phytophthora infestans [11] = experiment: whole plant or invertebrate; type: in vivo; details: Phytophthora infestans, in Solanum lycopersicum, foliar, read-out: Percent Disease Control, foliar, tomato late blight, 150 ppm, protective
Fusarium solani = experiment: Mycelial growth test; type: cell-based; details: Fusarium solani, 72 h; for inhibition at 5 ppm / inhibition at 10 ppm / inhibition at 20 ppm: PS, 72 hours, read-out: Percent Fungus Growth Inhibition; for inhibition at 40 ppm: read-out: Percent Fungus Growth Inhibition, PS, 40 ppm, 72 hours
Uromyces phaseoli [12] = experiment: whole plant or invertebrate; details: foliar, read-out: Percent Disease Control, foliar, bean rust
Alternaria solani [13] = experiment: Mycelial growth test; type: cell-based; details: Alternaria solani, 72 h, AS, read-out: Percent Fungus Growth Inhibition
Pyricularia oryzae [14] = type: cell-based; details: PO, 48 hours

For `CS(=O)(=O)c1ccc(Oc2nsnc(Cl)c2=O)cc1` [Compound 41, 3-chloro-5-[(4-methylsulfonyl)phenoxy]-4H--1,2,6-thiadiazin-4-one], the inhibition at 5 ppm (Cladosporium cucumerinum [1]) was 10%, the inhibition at 10 ppm (Cladosporium cucumerinum [1]) was 32% and the inhibition at 40 ppm (Cladosporium cucumerinum [1]) was 65%. It also gave an inhibition at 20 ppm (Cladosporium cucumerinum [1]) of 48%, an inhibition at 5 ppm (Pythium ultimum) of 0% and an inhibition at 10 ppm (Pythium ultimum) of 100%. It also gave an inhibition at 20 ppm (Pythium ultimum) of 100%, an inhibition at 40 ppm (Pythium ultimum) of 100% and an inhibition at 5 ppm (Rhizoctonia solani) of 0%. For the same compound, the inhibition at 10 ppm (Rhizoctonia solani) was 0%, the inhibition at 20 ppm (Rhizoctonia solani) was 51% and the inhibition at 40 ppm (Rhizoctonia solani) was 64%. It also gave a pest or weed control at 150 ppm (Uromyces phaseoli [2]) of 0%, an inhibition at 5 ppm (Helminthosporium oryzae) of 40% and an inhibition at 10 ppm (Helminthosporium oryzae) of 60%. The inhibition at 20 ppm (Helminthosporium oryzae) was 33%, the inhibition at 40 ppm (Helminthosporium oryzae) was 60% and the “Spore Germination Rating” value (Cladosporium cucumerinum [3]; 1.0 ppm) was 0 (0-10). The “Spore Germination Rating” value (Cladosporium cucumerinum [3]; 2.5 ppm) was 0 (0-10), the “Spore Germination Rating” value (Cladosporium cucumerinum [3]; 10 ppm) was 0 (0-10) and the “Spore Germination Rating” value (Cladosporium cucumerinum [3]; 40 ppm) was 0 (0-10). For the same compound, the inhibition at 5 ppm (Pyricularia oryzae [4]) was 22%, the inhibition at 10 ppm (Pyricularia oryzae [4]) was 56% and the inhibition at 20 ppm (Pyricularia oryzae [4]) was 59%. It also gave an inhibition at 40 ppm (Pyricularia oryzae [4]) of 93%, a pest or weed control at 150 ppm (Erysiphe polygoni [5]) of 0% and an inhibition at 5 ppm (Sclerotinia fructicola) of 56%. It also gave an inhibition at 10 ppm (Sclerotinia fructicola) of 78%, an inhibition at 20 ppm (Sclerotinia fructicola) of 100% and an inhibition at 40 ppm (Sclerotinia fructicola) of 100%. The “Spore Germination Rating” value (Phytophthora infestans [6]; 1.0 ppm) was 4 (80-100), the “Spore Germination Rating” value (Phytophthora infestans [6]; 2.5 ppm) was 2 (40-60) and the “Spore Germination Rating” value (Phytophthora infestans [6]; 10 ppm) was 0 (0-10). The “Spore Germination Rating” value (Phytophthora infestans [6]; 40 ppm) was 0 (0-10), the pest or weed control at 150 ppm (Pyricularia oryzae [7]) was 0% and the “Spore Germination Rating” value (Uromyces phaseoli [8]; 1.0 ppm) was 4 (80-100). For the same compound, the “Spore Germination Rating” value (Uromyces phaseoli [8]; 2.5 ppm) was 1 (10-40), the “Spore Germination Rating” value (Uromyces phaseoli [8]; 10 ppm) was 0 (0-10) and the “Spore Germination Rating” value (Uromyces phaseoli [8]; 40 ppm) was 0 (0-10). The “Spore Germination Rating” value (Erysiphe polygoni [9]; 1.0 ppm) was 2 (40-60), the “Spore Germination Rating” value (Erysiphe polygoni [9]; 2.5 ppm) was 2 (40-60) and the “Spore Germination Rating” value (Erysiphe polygoni [9]; 10 ppm) was 1 (10-40). The “Spore Germination Rating” value (Erysiphe polygoni [9]; 40 ppm) was 0 (0-10), the “Spore Germination Rating” value (Botrytis cinerea; 1.0 ppm) was 0 (0-10) and the “Spore Germination Rating” value (Botrytis cinerea; 2.5 ppm) was 0 (0-10). The “Spore Germination Rating” value (Botrytis cinerea; 10 ppm) was 4 (80-100), the “Spore Germination Rating” value (Botrytis cinerea; 40 ppm) was 3 (60-80) and the “Spore Germination Rating” value (Alternaria solani [10]; 1.0 ppm) was 4 (80-100). The “Spore Germination Rating” value (Alternaria solani [10]; 2.5 ppm) was 2 (40-60), the “Spore Germination Rating” value (Alternaria solani [10]; 10 ppm) was 0 (0-10) and the “Spore Germination Rating” value (Alternaria solani [10]; 40 ppm) was 0 (0-10). The pest or weed control at 150 ppm (Phytophthora infestans [11]) was 90%, the inhibition at 5 ppm (Fusarium solani) was 16% and the inhibition at 10 ppm (Fusarium solani) was 16%. The inhibition at 20 ppm (Fusarium solani) was 42%, the inhibition at 40 ppm (Fusarium solani) was 68% and the pest or weed control at 150 ppm (Uromyces phaseoli [12]) was 0%. For the same compound, the inhibition at 5 ppm (Alternaria solani [13]) was 54%, the inhibition at 10 ppm (Alternaria solani [13]) was 58% and the inhibition at 20 ppm (Alternaria solani [13]) was 58%. The inhibition at 40 ppm (Alternaria solani [13]) was 100%, the “Spore Germination Rating” value (Pyricularia oryzae [14]; 1.0 ppm) was 4 (80-100) and the “Spore Germination Rating” value (Pyricularia oryzae [14]; 2.5 ppm) was 3 (60-80). The “Spore Germination Rating” value (Pyricularia oryzae [14]; 10 ppm) was 0 (0-10) and the “Spore Germination Rating” value (Pyricularia oryzae [14]; 40 ppm) was 0 (0-10).

`COc1cc(Cl)cc(Oc2nsnc(Cl)c2=O)c1` [Compound 52, 3-chloro-5-[(3-chloro-5-methoxy)phenoxy]-4H--1,2,6-thiadiazin-4-one] showed an inhibition at 5 ppm (Cladosporium cucumerinum [1]) of 15%, an inhibition at 10 ppm (Cladosporium cucumerinum [1]) of 46% and an inhibition at 40 ppm (Cladosporium cucumerinum [1]) of 77%. The inhibition at 20 ppm (Cladosporium cucumerinum [1]) was 88%, the inhibition at 5 ppm (Pythium ultimum) was 4% and the inhibition at 10 ppm (Pythium ultimum) was 60%. For the same compound, the inhibition at 20 ppm (Pythium ultimum) was 100%, the inhibition at 40 ppm (Pythium ultimum) was 100% and the inhibition at 5 ppm (Rhizoctonia solani) was 33%. The inhibition at 10 ppm (Rhizoctonia solani) was 64%, the inhibition at 20 ppm (Rhizoctonia solani) was 64% and the inhibition at 40 ppm (Rhizoctonia solani) was 100%. It also gave a pest or weed control at 150 ppm (Uromyces phaseoli [2]) of 0%, an inhibition at 5 ppm (Helminthosporium oryzae) of 100% and an inhibition at 10 ppm (Helminthosporium oryzae) of 89%. For the same compound, the inhibition at 20 ppm (Helminthosporium oryzae) was 100%, the inhibition at 40 ppm (Helminthosporium oryzae) was 100% and the “Spore Germination Rating” value (Cladosporium cucumerinum [3]; 1.0 ppm) was 4 (80-100). The “Spore Germination Rating” value (Cladosporium cucumerinum [3]; 2.5 ppm) was 0 (0-10), the “Spore Germination Rating” value (Cladosporium cucumerinum [3]; 10 ppm) was 0 (0-10) and the “Spore Germination Rating” value (Cladosporium cucumerinum [3]; 40 ppm) was 0 (0-10). The inhibition at 5 ppm (Pyricularia oryzae [4]) was 58%, the inhibition at 10 ppm (Pyricularia oryzae [4]) was 77% and the inhibition at 20 ppm (Pyricularia oryzae [4]) was 100%. The inhibition at 40 ppm (Pyricularia oryzae [4]) was 100%, the pest or weed control at 150 ppm (Erysiphe polygoni [5]) was 75% and the inhibition at 5 ppm (Sclerotinia fructicola) was 65%. It also gave an inhibition at 10 ppm (Sclerotinia fructicola) of 81%, an inhibition at 20 ppm (Sclerotinia fructicola) of 100% and an inhibition at 40 ppm (Sclerotinia fructicola) of 100%. The “Spore Germination Rating” value (Phytophthora infestans [6]; 1.0 ppm) was 4 (80-100), the “Spore Germination Rating” value (Phytophthora infestans [6]; 2.5 ppm) was 0 (0-10) and the “Spore Germination Rating” value (Phytophthora infestans [6]; 10 ppm) was 0 (0-10). For the same compound, the “Spore Germination Rating” value (Phytophthora infestans [6]; 40 ppm) was 0 (0-10), the pest or weed control at 150 ppm (Pyricularia oryzae [7]) was 95% and the “Spore Germination Rating” value (Uromyces phaseoli [8]; 1.0 ppm) was 2 (40-60). The “Spore Germination Rating” value (Uromyces phaseoli [8]; 2.5 ppm) was 0 (0-10), the “Spore Germination Rating” value (Uromyces phaseoli [8]; 10 ppm) was 0 (0-10) and the “Spore Germination Rating” value (Uromyces phaseoli [8]; 40 ppm) was 0 (0-10). The “Spore Germination Rating” value (Erysiphe polygoni [9]; 1.0 ppm) was 4 (80-100), the “Spore Germination Rating” value (Erysiphe polygoni [9]; 2.5 ppm) was 2 (40-60) and the “Spore Germination Rating” value (Erysiphe polygoni [9]; 10 ppm) was 0 (0-10). For the same compound, the “Spore Germination Rating” value (Erysiphe polygoni [9]; 40 ppm) was 0 (0-10), the “Spore Germination Rating” value (Botrytis cinerea; 1.0 ppm) was 4 (80-100) and the “Spore Germination Rating” value (Botrytis cinerea; 2.5 ppm) was 3 (60-80). For the same compound, the “Spore Germination Rating” value (Botrytis cinerea; 10 ppm) was 0 (0-10), the “Spore Germination Rating” value (Botrytis cinerea; 40 ppm) was 0 (0-10) and the “Spore Germination Rating” value (Alternaria solani [10]; 1.0 ppm) was 4 (80-100). For the same compound, the “Spore Germination Rating” value (Alternaria solani [10]; 2.5 ppm) was 3 (60-80), the “Spore Germination Rating” value (Alternaria solani [10]; 10 ppm) was 0 (0-10) and the “Spore Germination Rating” value (Alternaria solani [10]; 40 ppm) was 0 (0-10). The pest or weed control at 150 ppm (Phytophthora infestans [11]) was 50%, the inhibition at 5 ppm (Fusarium solani) was 80% and the inhibition at 10 ppm (Fusarium solani) was 90%. For the same compound, the inhibition at 20 ppm (Fusarium solani) was 100%, the inhibition at 40 ppm (Fusarium solani) was 100% and the pest or weed control at 150 ppm (Uromyces phaseoli [12]) was 0%. For the same compound, the inhibition at 5 ppm (Alternaria solani [13]) was 52%, the inhibition at 10 ppm (Alternaria solani [13]) was 71% and the inhibition at 20 ppm (Alternaria solani [13]) was 90%. For the same compound, the inhibition at 40 ppm (Alternaria solani [13]) was 90%, the “Spore Germination Rating” value (Pyricularia oryzae [14]; 1.0 ppm) was 4 (80-100) and the “Spore Germination Rating” value (Pyricularia oryzae [14]; 2.5 ppm) was 0 (0-10). For the same compound, the “Spore Germination Rating” value (Pyricularia oryzae [14]; 10 ppm) was 0 (0-10) and the “Spore Germination Rating” value (Pyricularia oryzae [14]; 40 ppm) was 0 (0-10).
